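Results reflect a 48-hour exposure of cells in 96-well plates to compound at five concentrations. The concentration for full growth arrest is given as TGI.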
How the values were obtained:
Experiment in all cases: DTP human tumour cell line panel, 48 h
SF-268 CNS = tested on: SF-268 CNS
OVCAR-8 ovarian = tested on: OVCAR-8 ovarian
TK-10 renal = tested on: TK-10 renal
MDA-N = tested on: MDA-N
OVCAR-4 ovarian = tested on: OVCAR-4 ovarian
MOLT-4 leukemia = tested on: MOLT-4 leukemia
DU-145 prostate = tested on: DU-145 prostate
SK-OV-3 ovarian = tested on: SK-OV-3 ovarian
EKVX NSCLC = tested on: EKVX NSCLC
SNB-19 CNS = tested on: SNB-19 CNS
SF-295 CNS = tested on: SF-295 CNS
OVCAR-5 ovarian = tested on: OVCAR-5 ovarian
SK-MEL-28 melanoma = tested on: SK-MEL-28 melanoma
BT-549 breast = tested on: BT-549 breast
T-47D breast = tested on: T-47D breast
HCT-116 colon = tested on: HCT-116 colon
SK-MEL-5 melanoma = tested on: SK-MEL-5 melanoma
HL-60(TB) leukemia = tested on: HL-60(TB) leukemia
A549 NSCLC = tested on: A549 NSCLC
U251 CNS = tested on: U251 CNS
786-0 renal = tested on: 786-0 renal
CAKI-1 renal = tested on: CAKI-1 renal
OVCAR-3 ovarian = tested on: OVCAR-3 ovarian
ACHN renal = tested on: ACHN renal
HT29 colon = tested on: HT29 colon
RXF 393 renal = tested on: RXF 393 renal
MDA-MB-231 breast = tested on: MDA-MB-231 breast
PC-3 prostate = tested on: PC-3 prostate
LOX IMVI melanoma = tested on: LOX IMVI melanoma
SF-539 CNS = tested on: SF-539 CNS
IGROV1 ovarian = tested on: IGROV1 ovarian
MDA-MB-435 = tested on: MDA-MB-435
HCC-2998 colon = tested on: HCC-2998 colon
NCI/ADR-RES ovarian = tested on: NCI/ADR-RES ovarian
MALME-3M melanoma = tested on: MALME-3M melanoma
HOP-62 NSCLC = tested on: HOP-62 NSCLC
SW-620 colon = tested on: SW-620 colon
HOP-92 NSCLC = tested on: HOP-92 NSCLC
SR leukemia = tested on: SR leukemia
K-562 leukemia = tested on: K-562 leukemia
HCT-15 colon = tested on: HCT-15 colon
UACC-62 melanoma = tested on: UACC-62 melanoma
MCF7 breast = tested on: MCF7 breast
NCI-H522 lung = tested on: NCI-H522 lung
SN12C renal = tested on: SN12C renal
HS 578T breast = tested on: HS 578T breast
NCI-H226 lung = tested on: NCI-H226 lung
NCI-H23 lung = tested on: NCI-H23 lung
CCRF-CEM leukemia = tested on: CCRF-CEM leukemia
KM12 colon = tested on: KM12 colon
SK-MEL-2 melanoma = tested on: SK-MEL-2 melanoma
A498 renal = tested on: A498 renal
NCI-H460 lung = tested on: NCI-H460 lung
UACC-257 melanoma = tested on: UACC-257 melanoma
M14 melanoma = tested on: M14 melanoma
RPMI-8226 leukemia = tested on: RPMI-8226 leukemia
COLO 205 colon = tested on: COLO 205 colon

SMILES: CC(=O)c1cc(I)c(O)c2ncccc12
- TGI (SF-268 CNS): 9.86 µM
- TGI (OVCAR-8 ovarian): 7.38 µM
- TGI (TK-10 renal): > 10 µM
- TGI (MDA-N): > 10 µM
- TGI (OVCAR-4 ovarian): 6.82 µM
- TGI (MOLT-4 leukemia): 5.77 µM
- TGI (DU-145 prostate): 8.45 µM
- TGI (SK-OV-3 ovarian): > 10 µM
- TGI (EKVX NSCLC): > 10 µM
- TGI (SNB-19 CNS): > 10 µM
- TGI (SF-295 CNS): 9.61 µM
- TGI (OVCAR-5 ovarian): > 10 µM
- TGI (SK-MEL-28 melanoma): > 10 µM
- TGI (BT-549 breast): > 10 µM
- TGI (T-47D breast): > 10 µM
- TGI (HCT-116 colon): 5.93 µM
- TGI (SK-MEL-5 melanoma): 5.08 µM
- TGI (HL-60(TB) leukemia): 4.28 µM
- TGI (A549 NSCLC): > 10 µM
- TGI (U251 CNS): > 10 µM
- TGI (786-0 renal): 9.07 µM
- TGI (CAKI-1 renal): > 10 µM
- TGI (OVCAR-3 ovarian): 6.57 µM
- TGI (ACHN renal): 5.6 µM
- TGI (HT29 colon): > 10 µM
- TGI (RXF 393 renal): 8.76 µM
- TGI (MDA-MB-231 breast): 8.09 µM
- TGI (PC-3 prostate): > 10 µM
- TGI (LOX IMVI melanoma): > 10 µM
- TGI (SF-539 CNS): 6.57 µM
- TGI (IGROV1 ovarian): 7.44 µM
- TGI (MDA-MB-435): > 10 µM
- TGI (HCC-2998 colon): > 10 µM
- TGI (NCI/ADR-RES ovarian): 8.24 µM
- TGI (MALME-3M melanoma): 6.97 µM
- TGI (HOP-62 NSCLC): > 10 µM
- TGI (SW-620 colon): > 10 µM
- TGI (HOP-92 NSCLC): 6.19 µM
- TGI (SR leukemia): 8.98 µM
- TGI (K-562 leukemia): > 10 µM
- TGI (HCT-15 colon): > 10 µM
- TGI (UACC-62 melanoma): 7.9 µM
- TGI (MCF7 breast): > 10 µM
- TGI (NCI-H522 lung): > 10 µM
- TGI (SN12C renal): > 10 µM
- TGI (HS 578T breast): > 10 µM
- TGI (NCI-H226 lung): 5.7 µM
- TGI (NCI-H23 lung): 8.45 µM
- TGI (CCRF-CEM leukemia): 4.45 µM
- TGI (KM12 colon): > 10 µM
- TGI (SK-MEL-2 melanoma): > 10 µM
- TGI (A498 renal): 6.53 µM
- TGI (NCI-H460 lung): > 10 µM
- TGI (UACC-257 melanoma): 6.06 µM
- TGI (M14 melanoma): 4.09 µM
- TGI (RPMI-8226 leukemia): > 10 µM
- TGI (COLO 205 colon): 7.81 µM
